Test results published in patent US20070292403A1, “Methods of treating a neurological disorder with creatine monohydrate” (priority 2006, published 2007).
Read-outs that look alike come from different tables or passages of the source.

What was measured:
[1] = design: species or system human; settings: in vivo
Method: (§1) A two-phase open-label study was conducted to better determine an optimal dose of creatine symptomatic subjects with Huntington's disease. A dose-escalation study (10-40 grams per day) was conducted to determine the maximally tolerated dose (MTD) followed by a de-escalation phase to assess whether brain and serum levels of creatine might be maximal at doses lower than the MTD. Ten subjects were enrolled and followed prospectively for two weeks at each done level increasing in 5-gram increments during dose escalation that lasted 13 weeks. Assessments at each visit included UHDRS, EKG, vital signs, clinical safety and research labs. MRI spectroscopy was conducted prior to baseline at peak done (40 grams) and one month after de-escalation to either 30 or 15 grams daily. To determine an optimal dose, pharmacokinetic as well as clinical data were considered. Once the maximal dose was reached, subjects were assigned one of two lower doses previously taking (15 grams a day (n=5) or 30 grams a day (n=5)). Serum creatine was assessed at baseline, at the end of each 2-week dose escalation step and at the end of the de-escalation phase to assess the correspondence between serum and brain levels of creatine at steady state.

[2] = tested on: symptomatic subjects with Huntington's disease; type: in vivo, human
Method: as §1
Subjects at the end of this study were given the option to continue a long-term study to evaluate the long-term safety and tolerability of high dosage of creatine. Subjects have been followed for nine months on creatine. […] Adverse events have been infrequent and mild to moderate in grade and 30 grams daily creatine has been well-tolerated for 9 months. Laboratory abnormalities have been mild. […] Thus long term administration of 30 grams daily of creatine appears to be safe and well-tolerated.

[3] = tested on: symptomatic subjects with Huntington's disease; experiment: Example 3: open-label dose escalation (10-40 grams per day), tolerability, safety and UHDRS; type: in vivo, human
Method: as §1

serum 8OH2′dG = experiment: Example 3: serum 8OH2'dG suppression in dose escalation; type: in vivo, human
Method: as §1

[4] = tested on: subjects with Huntington's disease; experiment: Example 1: tolerability, safety and clinical (UHDRS) measures of creatine 8 g/day in Huntington's disease, randomized placebo-controlled; type: in vivo, human; design: Serum creatinine: unit: mg/dL; settings: for Serious adverse events / Study withdrawal before week 24: monohydrate
Method: Study design. Sixty-four subjects were enrolled at four sites. Eligible subjects were randomized to 8 g/day of creatine monohydrate or placebo by computer-generated blocked randomization with site stratification. Treatment was administered as chewable wafers twice daily for 16 weeks. A medical monitor and independent safety committee reviewed clinical data monthly. Consent, study procedures, and case report forms were approved by the institutional review board at each site. Blood samples for analysis of serum biomarkers were obtained with consent from 30 age-appropriate individuals without neurological illnesses.
Eligibility criteria. Eligible subjects were 18 years of age and older with a diagnosis of Huntington's disease confirmed by genetic testing, a total functional capacity score of ≧5, and a caregiver to witness consent and monitor compliance. Exclusion criteria included previous creatine exposure within 30 days of baseline; underlying hematological, hepatic, or renal disease; screening white blood cell count <3,800/mm^3; creatinine >2.0 mg/dL or alanine aminotransferase greater than twice the upper normal limit; or unstable medical/psychiatric illness.
Study protocol. Subjects were screened within 25 days of randomization (baseline visit). Screening included assessment of eligibility criteria, medical history, physical examination, Unified Huntington's Disease Rating Scale (UHDRS), EKG, DNA analysis, complete blood count, chemistry panel, and urinalysis. Subjects were on study drug (creatine or placebo) for 16 weeks, followed by an 8-week washout. Study visits occurred at baseline, weeks 8, 16, and 24 with telephone contacts at weeks 1, 10 and 20. Physical examination was done at screening and week 16. UHDRS scores, vital signs, adverse event assessment, and safety laboratory tests were repeated at all visits. Blood was collected for serum creatine levels and serum 8-hydroxy-2′-deoxyguanosine (8OH2′dG), a measure of oxidative injury affecting DNA. The later was analyzed in the samples from two sites. Magnetic resonance spectroscopy (MRS; STEAM; TR/TE=6000/20 milliseconds) of frontal cortex (voxel size=56 cc) and occipital cortex (voxel size=18 cc) performed at one site was analyzed for this report. Subject compliance was assessed by wafer counts.
Statistical analysis. The primary outcome measure was tolerability. […] Within 27 subjects per group, there was a 94% power to detect an absolute difference of 50% or more between the placebo group and the active treatment group assuming a 15% dropout rate. In accordance with intent to treat, all randomized subjects were included in safety and tolerability analysis. Tolerability was assessed by comparing the proportion of treatment failures in creatine and placebo groups using χ^2 test with continuity correction. As the primary interest was in detecting intolerability in the active group, a one-sided test was used (significance=0.05). This was also applied to assess adverse events and laboratory abnormalities. The laboratory score changes from screening were analyzed by repeated-measures analysis of variance (ANOVA), and the differences between visits were analyzed by paired t test. Demographic and baseline variables were summarized for each group, and comparisons made using Fischer's exact test and continuous variables were compared using t test. Changes in UHDRS motor, cognitive, behavioral, and functional component subscores were measured at baseline and weeks 8, 16, and 24 and analyzed by mixed-model ANOVA.

[5] = De-escalation Baseline, 15 g/day, N 5
[6] = De-escalation Baseline, 30 g/day, N 5
[7] = Week 24 (Visit 4), 30 g/day, N 10
[8] = 8 g/day, n = 32, frequency, listed as creatine
[9] = adverse event frequency, 8 g/day, n = 32

Q: What does the source list for CN(CC(=O)O)C(=N)N [Creatine, creatine monohydrate]?
A: Dose at which serum creatine levels reached a plateau ([1]; human): 30-35 grams/day; Brain levels of creatine in the frontal cortex by MRI spectroscopy [1]: continued increases; Independence Score [2, 5]: 75.0 (8.7); Stroop Color Naming [2, 5]: 52.8 (22.9); Stroop Interference [2, 5]: 23.8 (13.1); Stroop Word Reading [2, 5]: 56.0 (24.3); Symbol Digit Modalities Test [2, 5]: 29.0 (10.6); Total Chorea Score [2, 5]: 5.5 (1.7); Total Functional Assessment [2, 5]: 10.6 (9.8); Total Functional Capacity [2, 5]: 8.8 (1.8); Verbal Fluency Test [2, 5]: 15.8 (16.0); Independence Score [2, 6]: 82.5 (14.4); Stroop Color Naming [2, 6]: 57.8 (24.2); Stroop Interference [2, 6]: 40.0 (19.6); Stroop Word Reading [2, 6]: 90.0 (24.2); Symbol Digit Modalities Test [2, 6]: 34.0 (20.5); Total Chorea Score [2, 6]: 7.8 (4.3); Total Functional Assessment [2, 6]: 15.8 (10.2); Total Functional Capacity [2, 6]: 9.8 (3.4); Verbal Fluency Test [2, 6]: 28.3 (15.8); Independence Score [2, 7]: 82.5 (8.9); Stroop Color Naming [2, 7]: 51.7 (21.37); Stroop Interference [2, 7]: 31.3 (15.23); Stroop Word Reading [2, 7]: 62.7 (24.11); Symbol Digit Modalities Test [2, 7]: 30.56 (12.63); Total Chorea Score [2, 7]: 7.0 (4.1); Total Functional Assessment [2, 7]: 19.6 (4.1); Total Functional Capacity [2, 7]: 8.7 (2.2); Verbal Fluency Test [2, 7]: 26.6 (17.67); Serious adverse effects ([2]; human, in vivo): no serious adverse effects; Tolerability ([2]; human, in vivo): well-tolerated; Clinical changes (UHDRS subscores) ([2]; long-term follow-up, up to 9 months): no significant clinical changes; Dose tolerated by all subjects during dose escalation ([3]; 10 subjects, 5-gram increments, two weeks per dose level, no withdrawals): up to 40 grams/day; Changes in UHDRS subscores ([3]; dose escalation 10-40 grams per day): not significant; Adverse events at high doses ([3]; in vivo): increased numbers of adverse events; Average creatinine level ([3]; in vivo): 1.28 ± 0.16 mg/dL; BUN levels ([3]; in vivo): did not increase; Serious adverse events, laboratory abnormalities, EKG ([3]; in vivo): no serious adverse events, no significant laboratory abnormalities and no EKG alterations; Tolerability at selected dose ([3]; in vivo): excellent tolerability; Doses associated with maximum suppression of serum 8OH2′dG, levels similar to normal controls (serum 8OH2′dG): greater than 25 grams daily; Serum 8OH2′dG (serum 8OH2′dG; greater than seen with 8 grams per day): dose dependent suppression; Laboratory abnormalities ([4]; 8 g/day): mild reversible serum creatinine and alkaline phosphatase elevations; Tolerability ([4]; 8 g/day, chewable wafers twice daily, 16 weeks): well tolerated; All adverse events: mild, moderate and severe, (%) ([4]; 8 g/day, n = 32): 86.9%; All adverse events: mild, moderate and severe, no. ([4]; 8 g/day, n = 32, frequency): 26; Serious adverse events [4, 8]: three; Study withdrawal before week 24 [4, 8]: three; Serious adverse events ([4]; 8 g/day, n = 32, frequency): 3; Study withdrawal before week 24 ([4]; 8 g/day, n = 32, frequency): 2; Body mass index and UHDRS subscores compared with baseline ([4]; 8 g/day, paired t test): did not change with treatment; Apathy [4, 9]: 1; Cough [4, 9]: 1; Depression [4, 9]: 4; Dizziness [4, 9]: 1; Dysphagia [4, 9]: 1; Fall [4, 9]: 3; Hematuria [4, 9]: 1; Increased movements [4, 9]: 1; Irritability [4, 9]: 3; Lethargy [4, 9]: 2; Vomiting [4, 9]: 1; Serum creatinine ([4]; creatine group by week 8, from 0.88±0.19, p<0.01, elevated at week 16, baseline at washout, in mg/dL (unit assumed)): 1.04±0.24
